Test results as given in US20100069385A1, “LIQUID FORMULATIONS OF PHOSPHOLIPASE ENZYME INHIBITORS” (WYETH, priority 2006, published 2010).

How the values were obtained:
[1] = tested on: rat carrageenan-induced paw edema (CPE); test: Rat carrageenan-induced paw edema (CPE) study; format: in vivo
Method: Data from a rat carrageenan-induced paw edema (CPE) study indicated the minimum efficacious exposure of 4-(3-{5-chloro-1-(diphenylmethyl)-2-[2-({[2-(trifluoromethyl)benzyl]sulfonyl}amino)ethyl]-1H-indol-3-yl}propyl)benzoic acid was 1360 ng*hr/ml.

[2] = Solubility at room temperature in water, acid and basic conditions; format: physicochemical; details: free acid, below HPLC detection limit, read-out: intrinsic solubility of the free acid
Method: The solubility of 4-(3-{5-chloro-1-(diphenylmethyl)-2-[2-({[2-(trifluoromethyl)benzyl]sulfonyl}amino)ethyl]-1H-indol-3-yl}propyl)benzoic acid was measured at room temperature in water, acid and basic conditions.

O=C(O)c1ccc(CCCc2c(CCNS(=O)(=O)Cc3ccccc3C(F)(F)F)n(C(c3ccccc3)c3ccccc3)c3ccc(Cl)cc23)cc1 [4-(3-{5-chloro-1-(diphenylmethyl)-2-[2-({[2-(trifluoromethyl)benzyl]sulfonyl}amino)ethyl]-1H-indol-3-yl}propyl)benzoic acid]
minimum efficacious exposure [1]: 1360 ng·h/mL
solubility [2]: < 0.031 µg/mL
